Measured values from publication PMC5272823 (Peptides, 2016).
Ends that are not written are not given here.

Experiments:
[1] = type: in vivo, Female C57BL/6J mice; settings: glucose 0.35 g/kg i.v. alone; plasma ELISA; n=15
[2] = ref [10]; cited from earlier work

Molecule	Insulin peak concentration at 1 min [1] [nmol/L]	Effect on insulin clearance [2]	Effect on insulin secretion [2]
OC[C@H]1OC(O)[C@H](O)[C@@H](O)[C@@H]1O (stereo partly drawn) [glucose]	0.9 ± 0.2	–	–
GLP-1 (HAEGTFTSDVSSYLEGQAAKEFIAWLVKGR; ends and bridges not checked; UniProt P01275 98-127, looked up)	–	diminish insulin clearance	stimulate insulin secretion
